# Laboratory results taken from the supplement of paper PMC10011410.
# ± gives the standard deviation of the averaged measurements.
# Experiments:
# U-2 OS [1] = assay: intracellular GSH:GSSG ratio (calculated); higher = more reduced glutathione pool; settings: 24 h
# Outline: (§1)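 Most compounds were tested at 20, 10 and 5 μM with 0.4% DMSO, applied by pin tool to U-2 OS cells 24 h after seeding at 750 per well in white low-volume 384-well plates, followed by 24 h at 37 °C. Separate plates were read by luminescence for total glutathione and GSSG (GSH/GSSG-Glo) or for viability (CellTiter-Glo). Background- and row/column-corrected data are shown relative to vehicle or as a GSH:GSSG ratio.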
# U-2 OS [2] = assay: cell viability (CellTiter-Glo) relative to DMSO (% of control); higher = more viable; settings: 24 h
# Outline: as §1
# U-2 OS [3] = assay: total intracellular glutathione (GSH + GSSG) relative to DMSO (% of control); higher = more glutathione; settings: 24 h
# Outline: as §1
# U-2 OS [4] = assay: cell painting activity score (Mahalanobis distance from DMSO wells); higher = stronger morphological phenotype; settings: 24 h
# Outline: (§2)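 Cell painting used U-2 OS cells at about 1,500 per well in 384-well plates, treated by pin tool for 24 h at 37 °C, usually at six 2-fold concentrations from 20 μM to 625 nM. Cells were stained with MitoTracker, concanavalin A, phalloidin, wheat germ agglutinin, Hoechst and SYTO 14 and imaged on an Opera Phenix. Features were extracted with CellProfiler and normalized to DMSO cells on the same plate. The activity score is the Mahalanobis distance from DMSO wells; cell count is relative to DMSO wells. Values are means of four replicate plates.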
# U-2 OS [5] = assay: relative cell count vs DMSO (cell painting) (fraction of DMSO control); higher = more cells remaining (less cytotoxic); settings: 24 h
# Outline: as §2
# U-2 OS [6] = assay: AUC of culture confluence over time (live-cell imaging) (AUC (confluence % x time)); higher = more confluent culture (less growth inhibition)
# Outline: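 In 384-well plates, U-2 OS cells were seeded at 750 per well in F-12K medium containing 10% FBS. A pin tool added compounds 24 h after seeding, most at 20, 10 and 5 μM, along with 0.2% DMSO. Confluence was then followed at 37 °C on an Incucyte S3 (10x objective), with images every 4 h for up to 60 h. Values give the area under the confluence-versus-time curve.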
Compound,intracellular GSH:GSSG ratio (U-2 OS [1]; 5 µM),intracellular GSH:GSSG ratio (U-2 OS [1]; 10 µM),intracellular GSH:GSSG ratio (U-2 OS [1]; 20 µM),cell viability (U-2 OS [2]; 5 µM),cell viability (U-2 OS [2]; 10 µM),cell viability (U-2 OS [2]; 20 µM),total intracellular glutathione (U-2 OS [3]; 5 µM),total intracellular glutathione (U-2 OS [3]; 10 µM),total intracellular glutathione (U-2 OS [3]; 20 µM),cell painting activity score (U-2 OS [4]; 0.625 µM),cell painting activity score (U-2 OS [4]; 1.25 µM),cell painting activity score (U-2 OS [4]; 2.5 µM),cell painting activity score (U-2 OS [4]; 5 µM),cell painting activity score (U-2 OS [4]; 10 µM),cell painting activity score (U-2 OS [4]; 20 µM),relative cell count (U-2 OS [5]; 0.625 µM),relative cell count (U-2 OS [5]; 1.25 µM),relative cell count (U-2 OS [5]; 2.5 µM),relative cell count (U-2 OS [5]; 5 µM),relative cell count (U-2 OS [5]; 10 µM),relative cell count (U-2 OS [5]; 20 µM),AUC of culture confluence over time (U-2 OS [6]; 5 µM),AUC of culture confluence over time (U-2 OS [6]; 10 µM),AUC of culture confluence over time (U-2 OS [6]; 20 µM),AUC of culture confluence over time (U-2 OS [6]; 0.625 µM),AUC of culture confluence over time (U-2 OS [6]; 1.25 µM),AUC of culture confluence over time (U-2 OS [6]; 2.5 µM),intracellular GSH:GSSG ratio (U-2 OS [1]; 40 µM),cell viability (U-2 OS [2]; 40 µM),cell viability (U-2 OS [2]; 80 µM),total intracellular glutathione (U-2 OS [3]; 40 µM),total intracellular glutathione (U-2 OS [3]; 80 µM)
c1ccc(Nc2nc(-c3ccccc3)ns2)cc1,23.1,14.2,15.3,98.7 ± 3,95.3 ± 1.7,97.7 ± 4,104 ± 6.9,96.4 ± 2.9,98.2 ± 2.9,4.12,4.49,4.32,5.01,9.5,11.4,0.915,0.89,0.908,0.925,0.958,0.841,49.5,46.8,49.1,–,–,–,–,–,–,–,–
O=S1(=O)C=C(Sc2nn(-c3ccccc3)c(=S)s2)c2ccccc21,11.7,7.07,2.96,38.8 ± 8.9,30.5 ± 2.7,36.6 ± 8.1,65 ± 9.1,43.8 ± 9,29.2 ± 4.9,11.4,11.7,19.6,17.8,20.4,18.2,0.875,0.647,0.35,0.223,0.247,0.259,17.7,15.9,16.3,–,–,–,–,–,–,–,–
O=S1(=O)C=Cc2ccccc21,19.9,14.6,13.5,102 ± 5,97.3 ± 2.8,103 ± 5.8,138 ± 4,132 ± 8.3,141 ± 7.7,7.06,8.41,10.4,10.2,13.2,13.2,1.04,0.994,0.991,1.05,0.975,0.957,53.2,50.3,36.8,–,–,–,–,–,–,–,–
COC(=O)Nc1nc2ccc(C(=O)c3cccs3)cc2[nH]1,3.33,2.36,2.95,54.8 ± 7,47.5 ± 5.7,52.3 ± 9.2,53.1 ± 6.4,50.2 ± 4.2,51.4 ± 6,19.6 ± 2.7,18.4 ± 2.2,21.5 ± 2.2,22.3 ± 1.8,22.7 ± 1.8,23.1 ± 1.4,0.272 ± 0.056,0.265 ± 0.032,0.243 ± 0.033,0.232 ± 0.034,0.222 ± 0.035,0.211 ± 0.036,20.2,18.8,24.1,20.9,19.1,21.5,–,–,–,–,–
CC(=O)OC1C(c2ccc(=O)oc2)C2(C)CCC3C(CCC4CC(O)CCC43C)C23OC13 (configuration not stated),4.48,3.04,2.21,21.4 ± 1.7,21.5 ± 2.2,23.7 ± 3.1,13.9 ± 1.2,12.1 ± 1.1,11.5 ± 0.76,17.1,16.2,18,19,18.5,18.8,0.327,0.27,0.264,0.242,0.229,0.224,17.6,19.4,17.6,–,–,–,–,–,–,–,–
Cn1nnnc1SC1=CS(=O)(=O)c2ccccc21,3.69,2.11,0.199,54.9 ± 6.7,65.2 ± 7.2,6.9 ± 1.4,59.4 ± 4.2,85.3 ± 12,23.3 ± 3.9,5.5,8.76,12,21.3,13.8,21.5,0.936,0.834,0.727,0.392,0.322,0.255,19.6,16,12.1,–,–,–,–,–,–,–,–
C=CC(=O)Nc1cccc(Oc2nc(Nc3ccc(N4CCN(C)CC4)cc3OC)ncc2Cl)c1,24.9,–,–,87.2 ± 3.6,76 ± 1.4,39.8 ± 1.5,110 ± 7.6,102 ± 5.2,108 ± 2,5.47,8.25,10.7,9.73,12.1,14.9,1.09,1,0.976,0.957,0.914,0.342,42.4,21.9,5.33,–,–,–,–,–,–,–,–
CC1(C)CC[C@]2(C(=O)n3ccnc3)CC[C@]3(C)[C@H](C(=O)C=C4[C@@]5(C)C=C(C#N)C(=O)C(C)(C)[C@@H]5CC[C@]43C)[C@@H]2C1,3.45,4.45,0.635,43.9 ± 1.6,43.8 ± 5.2,94.4 ± 8.6,36.9 ± 4.2,38 ± 6.2,38.6 ± 5.8,17.6,23.5,35.7,33.9,32,26.6,0.329,0.22,0.121,0.0924,0.0552,0.0644,16,14.8,13.9,–,–,–,–,–,–,–,–
Oc1cccc(O)c1O,22.7,8.34,5.48,82.2 ± 6.1,35.7 ± 10,0.451 ± 0.23,82.6 ± 6.4,48.8 ± 13,3.4 ± 0.69,3.4,4.83,3.93,3.87,5.49,5.54,0.96,0.998,0.978,1.02,0.974,0.973,46.4,48,38.4,–,–,–,1.66,0.221 ± 0.03,0.263 ± 0.059,2.67 ± 0.16,2.53 ± 0.23
